Test results as given in patent US8410104B2, “Pyridazines” (Hoffmann-La Roche Inc., priority 2009, dated 2013).

Biological target: T1, human GABA A α5 receptor (α5β3γ2) (Homo sapiens, UniProt P18507+P31644)
T1 construct: expressed in transfected cells; host or cells: HEK293 cells, transiently transfected; membranes prepared from cell pellets
Experiment: [3H]flumazenil competition binding assay, human GABA A α5β3γ2 receptors in HEK293 cells
Details: human receptors transiently transfected in HEK293; 0.5 nM [3H]flumazenil; means of two determinations; read-out: hKi GABA A α5
Experimental: Membrane Preparation and Binding Assay
The affinity of compounds at GABA A receptor subtypes was measured by competition for [^3H]flumazenil (85 Ci/mmol; Roche) binding to HEK293 cells expressing rat (stably transfected) or human (transiently transfected) receptors of composition α1β3γ2, α2β3γ2, α3β3γ2 and α5β3γ2.
Cell pellets were suspended in Krebs-tris buffer (4.8 mM KCl, 1.2 mM CaCl2, 1.2 mM MgCl2, 120 mM NaCl, 15 mM Tris; pH 7.5; binding assay buffer), homogenized by polytron for ca. 20 sec on ice and centrifuged for 60 min at 4° C. (50000 g; Sorvall, rotor: SM24=20000 rpm). The cell pellets were re-suspended in Krebs-tris buffer and homogenized by polytron for ca. 15 sec on ice. Protein was measured (Bradford method, Bio-Rad) and aliquots of 1 mL were prepared and stored at −80° C.
Radioligand binding assays were carried out in a volume of […] (96-well plates) which contained […] of cell membranes, [^3H]flumazenil at a concentration of 1 nM for α1, α2 and α3 subunits and 0.5 nM for α5 subunits and the test compound in the range of […]. Nonspecific binding was defined by 10^−5 M diazepam and typically represented less than 5% of the total binding. Assays were incubated to equilibrium for 1 hour at 4° C. and harvested onto GF/C uni-filters (Packard) by filtration using a Packard harvester and washing with ice-cold wash buffer (50 mM Tris; pH 7.5). After drying, filter-retained radioactivity was detected by liquid scintillation counting. Ki values were calculated using Excel-Fit (Microsoft) and are the means of two determinations.

| SMILES | Ki [µM] |
| --- | --- |
| CCCCc1noc(C)c1COc1ccc(C(=O)NC2CCOC2)nn1 (racemic) [Example 8, Rac-6-(3-Butyl-5-methyl-isoxazol-4-ylmethoxy)-pyridazine-3-carboxylic acid (tetrahydro-furan-3-yl)-amide] | 0.0069 |
| CCCCc1noc(C)c1COc1ccc(C(=O)NC2CCOCC2)nn1 [Example 2, 6-(3-Butyl-5-methyl-isoxazol-4-ylmethoxy)-pyridazine-3-carboxylic acid (tetrahydro-pyran-4-yl)-amide] | 0.0166 |
| CCCCc1noc(C)c1COc1ccc(C(=O)NCC(C)(C)O)nn1 [Example 4, 6-(3-Butyl-5-methyl-isoxazol-4-ylmethoxy)-pyridazine-3-carboxylic acid (2-hydroxy-2-methyl-propyl)-amide] | 0.0173 |
| CCCCc1noc(C)c1COc1ccc(C(=O)N[C@H]2CCOC2)nn1 [Example 6, (S)-6-(3-Butyl-5-methyl-isoxazol-4-ylmethoxy)-pyridazine-3-carboxylic acid (tetrahydro-furan-3-yl)-amide] | 0.0086 |

Further lines, results first:

| Ki [µM] | SMILES |
| --- | --- |
| 0.0128 | CCCCc1noc(C)c1COc1ccc(C(=O)NC(C)C)nn1 [Example 1, 6-(3-Butyl-5-methyl-isoxazol-4-ylmethoxy)-pyridazine-3-carboxylic acid isopropylamide] |
| 0.007 | CCCCc1noc(C)c1COc1ccc(C(=O)N[C@H](C)CO)nn1 [Example 3, 6-(3-Butyl-5-methyl-isoxazol-4-ylmethoxy)-pyridazine-3-carboxylic acid ((R)-2-hydroxy-1-methyl-ethyl)-amide] |
| 0.0173 | CCCCc1noc(C)c1COc1ccc(C(=O)N[C@@H](C)CO)nn1 [Example 5, 6-(3-Butyl-5-methyl-isoxazol-4-ylmethoxy)-pyridazine-3-carboxylic acid ((S)-2-hydroxy-1-methyl-ethyl)-amide] |
| 0.0104 | CCCCc1noc(C)c1COc1ccc(C(=O)NC(C)CO)nn1 (stereo not drawn) [Example 7, 6-(3-Butyl-5-methyl-isoxazol-4-ylmethoxy)-pyridazine-3-carboxylic acid (2-hydroxy-1-methyl-ethyl)-amide] |
| 0.0073 | CCCCc1noc(C)c1COc1ccc(C(N)=O)nn1 [Example 9, 6-(3-Butyl-5-methyl-isoxazol-4-ylmethoxy)-pyridazine-3-carboxylic acid amide] |
